According to patent publication US8772499B2, “TRPV3 modulators” (AbbVie Inc., priority 2011, dated 2014):
Read-outs that look alike come from different tables or passages of the source.

Columns and labels:
human TRPV3 = biological target: T1, human TRPV3 (Homo sapiens, UniProt Q8NET8); experiment: In vitro antagonism of recombinant human TRPV3 activation (FLIPR Tetra calcium assay); format: cell-based; details: HEK293 cells stably expressing human TRPV3, agonist 2-APB at 80 μM
T1 construct: expressed in transfected cells
T1 sequence (Q8NET8 1-790): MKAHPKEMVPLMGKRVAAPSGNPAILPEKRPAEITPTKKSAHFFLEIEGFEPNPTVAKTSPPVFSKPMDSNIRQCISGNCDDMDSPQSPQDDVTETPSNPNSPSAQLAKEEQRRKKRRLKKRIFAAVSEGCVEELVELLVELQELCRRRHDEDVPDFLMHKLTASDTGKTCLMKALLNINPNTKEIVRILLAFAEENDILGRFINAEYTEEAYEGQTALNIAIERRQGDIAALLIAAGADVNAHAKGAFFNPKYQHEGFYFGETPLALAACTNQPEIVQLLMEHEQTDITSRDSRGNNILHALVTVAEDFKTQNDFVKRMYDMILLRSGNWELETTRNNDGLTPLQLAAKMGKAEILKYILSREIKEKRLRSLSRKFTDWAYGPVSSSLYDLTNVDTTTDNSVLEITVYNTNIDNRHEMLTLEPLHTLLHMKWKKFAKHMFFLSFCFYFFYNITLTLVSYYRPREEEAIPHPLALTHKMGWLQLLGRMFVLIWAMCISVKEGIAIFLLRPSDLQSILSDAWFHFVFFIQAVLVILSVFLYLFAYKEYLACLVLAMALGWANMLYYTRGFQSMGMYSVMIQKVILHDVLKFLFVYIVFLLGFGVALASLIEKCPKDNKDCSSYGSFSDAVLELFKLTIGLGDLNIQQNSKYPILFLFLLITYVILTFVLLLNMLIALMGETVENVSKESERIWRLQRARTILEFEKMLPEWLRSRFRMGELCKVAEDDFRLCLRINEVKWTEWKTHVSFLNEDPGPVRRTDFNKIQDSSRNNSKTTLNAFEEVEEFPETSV
Method in brief: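 HEK293 cells stably expressing human TRPV3, loaded with Calcium-4 dye for 90–120 min, received compound in DPBS, then 80 μM 2-APB (EC80) 3 min later. Max-minus-min fluorescence expressed as % of 2-APB response without antagonist; IC50 values mostly averages of n≥2 runs.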

[1] = In vitro rat microsomal stability assay; format: in vitro ADME, rat (Sprague-Dawley)
Method in brief: (§1)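 Metabolic stability measured in Sprague-Dawley rat or human liver microsomes at 37 °C. Reactions supplemented with NADPH.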

[2] = In vitro human microsomal stability assay; format: in vitro ADME
Method in brief: as §1

[3] = actual measured value shown parenthetically, in most cases average of at least two runs, read-out: IC50
[4] = Sprague-Dawley, rat, microsomes, 0.5 h, 0.5 μM, pH 7.4
[5] = human, microsomes, 0.5 h, 0.5 μM, pH 7.4
[6] = reported range, read-out: IC50 (range class)
[7] = rat liver microsomes (Sprague-Dawley), 0.5 μM substrate, 0.25 mg/mL microsomal protein, pH 7.4, 37° C., NADPH, 30 minutes
[8] = human liver microsomes, 0.5 μM substrate, 0.25 mg/mL microsomal protein, pH 7.4, 37° C., NADPH, 30 minutes

| SMILES | IC50 (human TRPV3; [3]) | RAT MICROSOMAL STABILITY (% REMAINING AFTER 30 MINUTES) [1, 4] | HUMAN MICROSOMAL STABILITY (% REMAINING AFTER 30 MINUTES) [2, 5] | IC50 (human TRPV3; [6]) | RAT MICROSOMAL STABILITY (% REMAINING AFTER 30 MINUTES) [1, 7] | HUMAN MICROSOMAL STABILITY (% REMAINING AFTER 30 MINUTES) [2, 8] |
| --- | --- | --- | --- | --- | --- | --- |
| O[C@H](c1ccccn1)[C@@]1(c2ccc(Cl)c(Cl)c2)CCO1 [Example 135, (R)-[(2S)-2-(3,4-dichlorophenyl)oxetan-2-yl](pyridin-2-yl)methanol] | 1.01 µM | 3.4% | 33% | – | – | – |
| OC(c1ccccn1)C1(c2ccc(C(F)(F)F)cn2)CC(F)(F)C1 (centres unmarked) [Example 137, {3,3-difluoro-1-[5-(trifluoromethyl)pyridin-2-yl]cyclobutyl}(pyridin-2-yl)-methanol] | 4.87 µM | >85% | 77% | – | – | – |
| OC(c1ccccn1)C1(c2ccc(Cl)c(C(F)(F)F)c2)CC(F)(F)C1 (centres unmarked) [Example 138, {1-[4-chloro-3-(trifluoromethyl)phenyl]-3,3-difluorocyclobutyl}(pyridin-2-yl)methanol] | 0.83 µM | 18% | 41% | – | – | – |
| OC(c1ccccn1)C1(c2ccc(F)c(C(F)(F)F)c2)CC(F)(F)C1 (centres unmarked) [Example 139, {3,3-difluoro-1-[4-fluoro-3-(trifluoromethyl)phenyl]cyclobutyl}(pyridin-2-yl)methanol] | 0.75 µM | 26% | 41% | – | – | – |
| OC(c1ccccn1)C1(c2ccc(Cl)c(Cl)c2)CCNCC1 (centres unmarked) [Example 140, [4-(3,4-dichlorophenyl)piperidin-4-yl](pyridin-2-yl)methanol] | > 20 µM | 37% | >85% | > 20 µM | – | – |
| CN1CCC(c2ccc(Cl)c(Cl)c2)(C(O)c2ccccn2)CC1 (centres unmarked) [Example 141, [4-(3,4-dichlorophenyl)-1-methylpiperidin-4-yl](pyridin-2-yl)methanol] | > 20 µM | – | – | > 20 µM | 59% | >85% |
| OC(c1ccccn1)C1(c2ccccc2OC(F)(F)F)CCNCC1 (centres unmarked) [Example 142, pyridin-2-yl{4-[2-(trifluoromethoxy)phenyl]piperidin-4-yl}methanol] | > 20 µM | 37% | >85% | > 20 µM | – | – |
| CN1CCC(c2ccc(C(F)(F)F)cc2)(C(O)c2ccccn2)CC1 (centres unmarked) [Example 143, {1-methyl-4-[4-(trifluoromethyl)phenyl]piperidin-4-yl}(pyridin-2-yl)-methanol] | > 20 µM | – | – | > 20 µM | 80% | >85% |
| OC(c1ccccn1)C1(c2ccc(OC(F)(F)F)cc2)CCNCC1 (centres unmarked) [Example 144, pyridin-2-yl{4-[4-(trifluoromethoxy)phenyl]piperidin-4-yl}methanol] | > 20 µM | 51% | >85% | > 20 µM | – | – |
| CN1CCC(c2ccc(OC(F)(F)F)cc2)(C(O)c2ccccn2)CC1 (centres unmarked) [Example 145, {1-methyl-4-[4-(trifluoromethoxy)phenyl]piperidin-4-yl}(pyridin-2-yl)-methanol] | 1.77 µM | – | – | – | 42% | 68% |
| CN1CCC(c2cccc(OC(F)(F)F)c2)(C(O)c2ccccn2)CC1 (centres unmarked) [Example 146, {1-methyl-4-[3-(trifluoromethoxy)phenyl]piperidin-4-yl}(pyridin-2-yl)-methanol] | 12.8 µM | – | – | – | 8.9% | 84% |
| OC(c1ccccn1)C1(c2ccc(C(F)(F)F)cc2)CCNCC1 (centres unmarked) [Example 147, pyridin-2-yl{4-[4-(trifluoromethyl)phenyl]piperidin-4-yl}methanol] | > 20 µM | 79% | >85% | > 20 µM | – | – |
| OC(c1ccccn1)C1(c2cccc(OC(F)(F)F)c2)CCNCC1 (centres unmarked) [Example 148, pyridin-2-yl{4-[3-(trifluoromethoxy)phenyl]piperidin-4-yl}methanol] | 3.1 µM | – | – | – | 53% | >85% |
| CN1CCC(c2ccccc2OC(F)(F)F)(C(O)c2ccccn2)CC1 (centres unmarked) [Example 149, {1-methyl-4-[2-(trifluoromethoxy)phenyl]piperidin-4-yl}(pyridin-2-yl)-methanol] | 6.2 µM | – | – | – | 62% | >85% |
| COC1CC(c2ccc(Cl)c(Cl)c2)(C(O)c2ccccn2)C1 [Example 150, (S)-[cis-1-(3,4-dichlorophenyl)-3-methoxycyclobutyl](pyridin-2-yl)-methanol] | 1.69 µM | <0.01% | 42% | – | – | – |
| OC(c1ccccn1)C1(c2ccc(C(F)(F)F)cc2)CNC1 (centres unmarked) [Example 152, pyridin-2-yl{3-[4-(trifluoromethyl)phenyl]azetidin-3-yl}methanol] | 19.7 µM | >85% | >85% | – | – | – |
| CC(C)(C)OC(=O)N1CC(c2ccc(C(F)(F)F)cc2)(C(O)c2ccccn2)C1 (centres unmarked) [Example 153, tert-butyl 3-[hydroxy(pyridin-2-yl)methyl]-3-[4-(trifluoromethyl)phenyl]-azetidine-1-carboxylate] | 8.01 µM | 21% | 49% | – | – | – |
| O[C@H](c1ccccn1)C1(c2ccc(C(F)(F)F)cc2)CC(F)(F)C1 [Example 154, (S)-{3,3-difluoro-1-[4-(trifluoromethyl)phenyl]cyclobutyl}(pyridin-2-yl)-methanol] | 0.23 µM | 78% | 56% | – | – | – |
| CN1CC(c2ccc(C(F)(F)F)cc2)(C(O)c2ccccn2)C1 (centres unmarked) [Example 155, {1-methyl-3-[4-(trifluoromethyl)phenyl]azetidin-3-yl}(pyridin-2-yl)-methanol] | 17 µM | 76% | >85% | – | – | – |
| CC(C)(C)OC(=O)N1CCC(c2ccc(C(F)(F)F)cc2)(C(O)c2ccccn2)CC1 (centres unmarked) [Example 156, tert-butyl 4-[hydroxy(pyridin-2-yl)methyl]-4-[4-(trifluoromethyl)phenyl]-piperidine-1-carboxylate] | > 20 µM | 0.08% | 26% | > 20 µM | – | – |
| CC(C)(C)OC(=O)N1CCC(c2ccc(OC(F)(F)F)cc2)(C(O)c2ccccn2)CC1 (centres unmarked) [Example 157, tert-butyl 4-[hydroxy(pyridin-2-yl)methyl]-4-[4-(trifluoromethoxy)phenyl]-piperidine-1-carboxylate] | > 20 µM | 0.93% | 28% | > 20 µM | – | – |
